Series [1] has as its system male Carworth Farms #1 mice. Description: Maximal electroshock seizure test (MES). Type of series: in vivo. The note with it: Mus musculus, maximal electroshock seizures. An excerpt:
(§1) Pharmacology. The following compounds were'tested for anticonvulsant activity using male Carworth Farms #1 mice: • N-Acetyl-D,L-alanine-N'-benzylamide • N-Acetyl-D-alanine-N'-benzylamide • N-Acetyl-L-alanine-N'-benzylamide • N-Acetyl-D,L-phenylglycine-N'-methylamide • N-Acetylglycine-N-benzylamide • N-Acetyl-D,L-valine-N-benzylamide • N-Acetyl-D,L-phenylglycine-N-benzylamide • N-Acetyl-D-phenylglycine-N-benzylamide • N-Acetyl-L-phenylglycine-N-benzylamide • N-Acetyl-D,L-alanine-N-(3-methoxy)benzylamide • N-Trimethylacetyl-D,L-alanine-N-benzylamide • N-Acetyl-D,L-methionine-N-benzylamide • N-Acetyl-D,L-alanine-N'-(3-fluoro)benzylamide • D,L-α-Acetamido-N-benzyl-3-thiopheneacetamide • D,L-α-Acetamido-N-benzyl-2-thiopheneacetamide • D,L-α-Acetamido-N-benzyl-2-furanacetamide • D,L-α-Acetamido-N-benzyl-2-pyrroleacetamide • D,L-2-Acetamido-N-benzyl-2-ethoxyacetamide • D,L-α-Acetamido-N-benzyl-2-(5-methylfuran)acetamide • D,L-α-Acetamido-N-benzyl-2-benzofuranacetamide • D,L-α-Acetamido-N-benzyl-2-benzo[b]thiopheneacetamide • D,L-α-Acetamido-N-benzyl-2-(5-methylpyrrole)acetamide • D,L-α-Acetamido-N-(2-fluorobenzyl)-2-furanacetamide • D,L-α-Acetamido-N-(3-fluorobenzyl)-2-furanacetamide • D,L-α-Acetamido-N-(4-fluorobenzyl)-2-furanacetamide • D,L-α-Acetamido-N-(2,5-difluorobenzyl)-2-furanacetamide • D,L-α-Acetamido-N-(2,6-difluorobenzyl)-2-furanacetamide • D-(-)-α-Acetamido-N-benzyl-2-furanacetamide • L-(+)-α-Acetamido-N-benzyl-2-furanacetamide • D,L-2-Acetamido-4-pentenoic acid-N-benzylamide • D,L-2-Acetamido-N-benzyl-2-(1-morpholine)acetamide (reference compound) • D,L-2-Acetamido-N-benzyl-2-(N-anilino)acetamide • D,L-2-Acetamido-N-benzyl-2-(methylamino)acetamide • D,L-2-Acetamido-N-benzyl-2-(ethylamino)acetamide • D,L-2-Acetamido-N-benzyl-3-indoleacetamide (reference compound)
(§2) N-Acetyl-D,L-alanine-N'-benzylamide was tested at […] as well. […] Maximal electroshock seizures (MES) were elicited with a 60 cycle alternating current of 50 mA intensity (5-7 times that necessary to elicit minimal electroshock seizures) delivered for 0.2 sec via corneal electrodes. A drop of 0.9% saline was instilled in the eye prior to application of the electrodes so as to prevent the death of the animal. Protection in this test was defined as as the abolition of the hind limb tonic extension component of the seizure. The Subcutaneous Pentylenetetrazole (Metrazol^R) Seizure Threshold Test (sc Met) entailed the administration of 85 mg/kg of pentylenetetrazole as a 0.5% solution subcutaneously in the posterior midline. […] Protection was defined as a failure to observe even a threshold seizure (a single episode of clonic spasms of at least 5 sec duration). The effects of the compounds on forced and spontaneous motor activity were evaluated in mice using the Rotorod Test (Tox) or, in some cases, as indicated herein, a horizontal screen assay (HS). The procedure for the rotorod test is described in J. Am. Pharm. Assoc., 46, 208-209 (1957). In the rotorod test, the animal was placed on a one-inch diameter knurled plastic rod rotating at 6 rpm after the administration of the drug. Normal mice can remain on a rod rotating at this speed indefinitely. Neurologic toxicity was defined as the failure of the animal to remain on the rod for one minute. In the horizontal screen test, previously trained mice were dosed with the compound and placed individually on top of a square (13 cm X 13 cm) wire screen (no. 4 mesh) which was mounted on a metal rod. The rod was rotated 180°, and the number of mice that returned to the top of the screen was determined. Inability to climb to the top within one minute was defined as "neurological impairment". This procedure is described in Pharmacol. Biochem. Behav. 6, 351-353 (1977).
(§3) The dose effect behavior of the compounds was evaluated using the above-described procedures by the administration of varying dose levels, treating normally eight mice at each dose. […]
A general note: Protection in the maximal electroshock model is a classic sign of anticonvulsant action.

In series [2] the test system is male Carworth Farms #1 mice. Description: Subcutaneous Pentylenetetrazole (Metrazol) Seizure Threshold Test (sc Met). Type of series: in vivo. To be noted: 85 mg/kg pentylenetetrazole subcutaneously, 95% confidence intervals in brackets. On the procedure: Pharmacology. […]
N-Acetyl-D,L-alanine-N'-benzylamide was tested at 600 mg/mL as well. […] The effects of the compounds on forced and spontaneous motor activity were evaluated in mice using the Rotorod Test (Tox) or, in some cases, as indicated herein, a horizontal screen assay (HS). […] The rod was rotated 180°, and the number of mice that returned to the top of the screen was determined. […]
as §3

Series [3] can be described thus: Horizontal screen test (HS), neurological impairment. Type of series: in vivo. The note with it: mouse, in vivo; mice; determined using the horizontal screen test (footnote xx); 95% confidence intervals in brackets; read-out: Tox TD50.
Source text: as §1, §2, §3

For series [4], the system named is male Carworth Farms #1 mice. The series is described as above. Type of series: in vivo. The note with it: determined using the horizontal screen test (footnote xx), 95% confidence intervals in brackets.
Source text: as §1, §2, §3

A short description of series [5]: Rotorod Test (Tox), neurologic toxicity. To be noted: mouse, in vivo, mice, median toxic dose, 95% confidence intervals in brackets.
Method: The effects of the compounds on forced and spontaneous motor activity were evaluated in mice using the Rotorod Test (Tox) or, in some cases, as indicated herein, a horizontal screen assay (HS). […] In the rotorod test, the animal was placed on a one-inch diameter knurled plastic rod rotating at 6 rpm after the administration of the drug. Normal mice can remain on a rod rotating at this speed indefinitely. Neurologic toxicity was defined as the failure of the animal to remain on the rod for one minute. In the horizontal screen test, previously trained mice were dosed with the compound and placed individually on top of a square (13 cm X 13 cm) wire screen (no. 4 mesh) which was mounted on a metal rod. The rod was rotated 180°, and the number of mice that returned to the top of the screen was determined. Inability to climb to the top within one minute was defined as "neurological impairment".
[6] abbreviates: 50 mA, 0.2 sec, corneal electrodes, 95% confidence intervals in brackets.

Turning to `CC(=O)NC(C(=O)NCc1ccccc1F)c1ccco1` (racemic) [(D,L)-α-Acetamido-N-(2-fluorobenzyl)-2-furanacetamide], in series [1] (setting [6]), the ED50 (usually the dose at which the effect has come halfway, by size or by number of responders) stood at 40 mg/kg.
In the case of `O=C1NC(=O)C(c2ccccc2)(c2ccccc2)N1` [phenytoin], the “sc Met ED50” value in series [2] is recorded as “not effective”.
Turning to `CC(=O)NC(C(=O)NCc1ccccc1)c1cc2ccccc2s1` (racemic) [(D,L)-α-Acetamido-N-benzyl-2-benzo[b]thiopheneacetamide], the TD50 – broadly, the dose at which the toxic effect under study appears in half of the subjects – in series [3] was in the range of 100 to 300 mg/kg. This compound also gave an ED50 in series [1] (setting [6]) of 100 to 300 mg/kg.
On to `CC(=O)NC(C(=O)NCc1cccc(F)c1)c1ccco1` (racemic) [(D,L)-α-Acetamido-N-(3-fluorobenzyl)-2-furanacetamide], for which, in series [3], the TD50 turned out to be 136 mg/kg. Besides, in series [1] (setting [6]), the 50% effect level (ED50) was put at a dose of 13.3 mg/kg.
In turn, `CC(=O)NC(C(=O)NCc1cc(F)ccc1F)c1ccco1` (racemic) [(D,L)-α-Acetamido-N-(2,5-fluorobenzyl)-2-furanacetamide] had an ED50 in series [1] (setting [6]) of 23.8 mg/kg.
The same measure, in the same setting: in the case of `CCNC(NC(C)=O)C(=O)NCc1ccccc1` (racemic) [(D,L)-2-Acetamido-N-benzyl-2-(ethylamino)acetamide] it was 42.4 mg/kg.
Regarding `CC(=O)NC(C(=O)NCc1c(F)cccc1F)c1ccco1` (racemic) [(D,L)-α-Acetamido-N-(2,6-difluorobenzyl)-2-furanacetamide], the ED50 in series [1] (setting [6]) was in the range of 25 to 100 mg/kg.
In series [1] (setting [6]), `CC(=O)NC(C(=O)NCc1ccccc1)c1ccc(C)[nH]1` (racemic) [(D,L)-α-Acetamido-N-benzyl-2-(5-methylpyrrole)acetamide] displayed an ED50 of 36.5 mg/kg.
`C=CCC(NC(C)=O)C(=O)NCc1ccccc1` (racemic) [(D,L)-2-Acetamido-4-pentenoic Acid-N-benzylamide] came in with an ED50 in series [1] (setting [6]) of 33.6 mg/kg.
Regarding `CC(=O)NC(C(=O)NCc1ccccc1)N1CCOCC1` (racemic) [(D,L)-2-Acetamido-N-benzyl-2-(1-morpholine)acetamide, reference compound], the ED50 in series [1] (setting [6]) lay within 30 to 100 mg/kg.
Regarding `CC(=O)NC(C(=O)NCc1ccccc1)c1ccc(C)o1` (racemic) [(D,L)-α-Acetamido-N-benzyl-2-(5-methylfuran)acetamide], the “Tox TD50” value in series [4] is 75.4^xx mg/kg. This compound yielded an ED50 in series [1] (setting [6]) of 19.2 mg/kg.
For the compound `CC(=O)NC(C(=O)NCc1ccccc1)c1cc2ccccc2o1` (racemic) [(D,L)-α-Acetamido-N-benzyl-2-benzofuranacetamide], the TD50 in series [3] is 100 to 300 mg/kg. In addition, the ED50 in series [1] (setting [6]) is 100 to 300 mg/kg.
Consider `CC(=O)NC(Nc1ccccc1)C(=O)NCc1ccccc1` (racemic) [(D,L)-2-Acetamido-N-benzyl-2-(N-anilino)acetamide], for which the 50% effective dose (ED50) in series [1] (result given as footnote symbol) was ≥ 300 mg/kg.
For the compound `CNC(NC(C)=O)C(=O)NCc1ccccc1` (racemic) [(D,L)-2-Acetamido-N-benzyl-2-(methylamino)acetamide], in series [5], the TD50 is 95 mg/kg. Further, the ED50 in series [1] (setting [6]) is 44.5 mg/kg.
In the case of `CC(=O)NC(C(=O)NCc1ccc(F)cc1)c1ccco1` (racemic) [(D,L)-α-Acetamido-N-(4-fluorobenzyl)-2-furanacetamide], in series [3], the TD50 came to 144 mg/kg. The same compound displayed an ED50 in series [1] (setting [6]) of 12.7 mg/kg.
In the case of `CC(=O)NC(C(=O)NCc1ccccc1)c1ccco1` (racemic) [D,L-α-Acetamido-N-benzyl-2-furanacetamide], the values for the TD50 in series [5] and in series [3] were > 300 mg/kg and 23.8 mg/kg, respectively.

These data come from patent EP0400440B1, “Amino acid derivative anticonvulsant” (RESEARCH CORPORATION TECHNOLOGIES, INC., priority 1989, dated 1990).
